Experimental data reported in US12173061B2, “Compositions and methods for treatment of chronic lung diseases” (Board of Regents, The University of Texas System, priority 2021, dated 2024).

Tests used:
[1] = tested on: pulmonary fibrosis after lung injury; settings: cited from earlier work; for subsequent pulmonary fibrosis: after BLM, prior work; for PF in mice after single (1×) or multi-hit (8×) BLM-, Ad-TGF-β1-, silica- and thoracic radiation-induced lung injury: prior work of the inventor's group
[2] = tested on: AECs / lung epithelial cells (LECs); settings: cited from earlier work; for BLM-induced apoptosis of lung epithelial cells (LECs): in vitro and in vivo, prior work; for AEC apoptosis: prior work of the inventor's group
fLfs = settings: prior work of the inventor's group; cited from earlier work
[3] = tested on: BLM-induced pulmonary fibrosis; assay: BLM-induced established pulmonary fibrosis in mice, treatment d14-d21; type: in vivo; settings: for BLM-induced pulmonary fibrosis (overall): mice, 1.0 U/kg BLM IT, peptide 10 mg/kg/d IP daily for 7 days starting d14; for lung compliance / lung elastance: flexiVent; for whole lung total hydroxyproline: lung homogenates
Protocol: FIGS. 9A-9O. M9 peptide and protein mitigated BLM-induced pulmonary fibrosis. Mice exposed to saline or 1.0 U/kg BLM by intratracheal instillation were treated with or without M9 peptide HGHVDPVKTPKI (SEQ ID NO: 4) (10 mg/kg/d) and M9 protein (SEQ ID NO: 1) 7.5 mg/kg/d) via IP injection daily for 7 days starting d14 after BLM injury. FIG. 9A: Representative micro-CT images at d21 after BLM exposure. FIG. 9B: Lung volumes were measured by quantitative-CT renditions. Lung compliance (FIG. 9C) and elastance (FIG. 9D) were measured using a flexiVent system. Lung weights (FIG. 9E) and body weights (FIG. 9F) are presented as bar graphs. Lung homogenates were tested for hydroxyproline (FIG. 9G), soluble collagen (FIG. 9H), pro-fibrogenic marker proteins (FIG. 9I) and mRNAs (FIG. 9J). Bars indicate mean±SD. Statistical significance (*P<0.05, **P<0.01, ***P<0.001 and ****P<0.0001) was assessed by one-way ANOVA with Turkey's multiple comparison. fLfs isolated from IPF lungs treated with PBS or recombinant full length M9 (rM9^FL) protein (2 μg/ml) for 48 h in vitro were tested for pro-fibrogenic proteins (FIG. 9L). fLfs (from IPF lungs) treated with PBS or extracellular domain of rM9^FL protein (rM9^ECD) as in FIG. 9L were tested for pro-fibrogenic proteins (FIG. 9N). The survival the mice treated with rM9^FL is shown FIG. 9M.
FIGS. 10A-10K. UNC5A (“U5”) peptide/protein mitigated BLM-induced pulmonary fibrosis. Mice exposed to saline or 1.0 U/kg BLM by intratracheal instillation were treated with or without U5 peptide (50 residues, SEQ ID NO: 7) (10 mg/kg/d) and full length U5 protein (SEQ ID NO: 5) (7.5 mg/kg/d) via IP injection daily for 7 days starting d14 after BLM injury. FIG. 10A: Representative micro-CT images at d21 after BLM exposure. FIG. 10B: Lung volumes were measured by quantitative-CT renditions. Lung compliance (FIG. 10C) and elastance (FIG. 10D) were measured using a flexiVent system. Lung weights (FIG. 10E) and body weights (FIG. 10F) are presented as bar graphs. Lung homogenates were tested for hydroxyproline (FIG. 10G), soluble collagen (FIG. 10H), pro-fibrogenic marker proteins (FIG. 10I) and mRNAs (FIG. 10J). Bars indicate mean±SD. Statistical significance (*P<0.05, **P<0.01, ***P<0.001 and ****P<0.0001) was assessed by one-way ANOVA with Turkey's multiple comparison.
FIGS. 11A-11K. ALG5 (“A5”) protein mitigated BLM-induced pulmonary fibrosis. Mice exposed to saline or 1.0 U/kg BLM by intratracheal instillation were treated with or without A5 protein (SEQ ID NO: 9) (7.5 mg/kg/d) via IP injection daily for 7 days starting d14 after BLM injury. FIG. 11A: Representative micro-CT images at d21 after BLM exposure. FIG. 11B: Lung volumes were measured by quantitative-CT renditions. Lung compliance (FIG. 11C) and elastance (FIG. 11D) were measured using a flexiVent system. Lung weights (FIG. 11E) and body weights (FIG. 11F) are presented as bar graphs. Lung homogenates were tested for hydroxyproline (FIG. 11G), soluble collagen (FIG. 11H), pro-fibrogenic marker proteins (FIG. 11I) and mRNAs (FIG. 11J). Bars indicate mean±SD. *P<0.05, **P<0.01, ***P<0.001 and ****P<0.0001 were obtained by one-way ANOVA with Turkey's multiple comparison.
FIGS. 12A-12E. WT mice with BLM-PF were treated with or without rM9^ECD (1.5 mg/kg) via intratracheal (IT) instillation daily for 7 d starting d 14 after BLM. Survival (FIG. 12A), body weights (FIG. 12B), lung volumes (FIG. 12C) and lung weights (FIG. 12D) were measured on d 21 post-BLM. Lung homogenates were tested for soluble collagen (FIG. 12E).
FIGS. 13A-13B. FIG. 13A: fLfs (IPF) treated with PBS or M9^mAb (2 μg/ml) or control IgG, tested for pro-fibrogenic proteins (i) and mRNAs (ii). FIG. 13B: WT mice with BLM-PF were left untreated, or intraperitoneal (IP) injected with control IgG or M9^mAb (2.5 mg/kg) daily for 7 d starting 14 d after IT BLM. Body weights (i) and total lung hydroxyproline (ii), and soluble collagen (iii) were measured. […]

[4] = peptide 10 mg/kg/d IP, 7 days starting d14 after BLM
[5] = peptide 10 mg/kg/d IP, 7 days starting d14 after BLM, d21

Row | Substance | subsequent pulmonary fibrosis [1] | BLM-induced apoptosis of lung epithelial cells (LECs) [2] | fLf expansion (fLfs) | PF in mice after single (1×) or multi-hit (8×) BLM-, Ad-TGF-β1-, silica- and thoracic radiation-induced lung injury [1] | AEC apoptosis [2] | BLM-induced fibrogenic marker proteins (Col1, FN, TN-C, α-SMA) in whole lung homogenates [3, 4] | body weight [3, 4] | collagen and other extracellular matrix deposits (Trichrome staining of lung sections) [3, 4] | fibrogenic marker transcripts in whole lung homogenates [3, 4] | lung weight [3, 4] | lung compliance [3, 5] | lung elastance [3, 5] | whole lung total hydroxyproline [3, 4] | also measured
1 | NYHYLESSMTALYTLGH (listed as Homo sapiens) [PP-2] | prevented | protected | – | – | – | – | – | – | – | – | – | – | – | –
2 | DGIWKASFTTFTVTKYWFYR (listed as Homo sapiens) [CSP] | prevented | protected | inhibited | blocked | inhibited | – | – | – | – | – | – | – | – | –
3 | HGHVDPVKTPKI (listed as Homo sapiens) [M9 peptide] | – | – | – | – | – | marked inhibition | improvement | remarkable reduction | marked inhibition | reduction | improved | improved | significant inhibition | BLM-induced pulmonary fibrosis (overall) ([3]; d21): mitigated; BLM-induced pulmonary fibrosis (overall) ([3]; d21, listed as M9 12-Mer Peptide): Mitigated; BLM-induced pulmonary fibrosis (overall) ([3]; d21, listed as SEQ ID NO: 4): resolved; lung volume ([3]; peptide 10 mg/kg/d IP, 7 days starting d14 after BLM, quantitative CT, d21): improved
4 | VYCRKKEGLDSDVADSSILTSGFQPVSIKPSKADNPHLLTIQPDLSTTTT (VYCRKKEGLDSDVADSSILTSGFQPVSIKPSKADNPHLLTIQPDLSTTTT; listed as Homo sapiens) [U5A peptide] | – | – | – | – | – | inhibition | improvement | reduction | inhibition | reduction | improved | improved | reduction | BLM-induced pulmonary fibrosis (overall) ([3]; d21, listed as U5A 50-Mer Peptide): Mitigated; BLM-induced pulmonary fibrosis (overall) ([3]; d21, listed as U5 peptide): mitigated
5 | FTTFTVT (listed as Homo sapiens) [CSP7] | – | – | inhibited | blocked | inhibited | – | – | – | – | – | – | – | – | tolerability in mice ([1]; prior work (Marudamuthu et al., 2019)): well-tolerated
